# Measurements from patent publication US12233060B2, “Inhibitors of Ataxia-Telangiectasia Mutated and Rad3-related protein kinase (ATR) for use in methods of treating cancer” (THE INSTITUTE OF CANCER RESEARCH: ROYAL CANCER HOSPITAL, priority 2016, dated 2025).
# Experiments:
# [1] = tested on: HCT116 ARID1A−/− xenografts; experiment: In vivo efficacy, HCT116 ARID1A−/− subcutaneous xenografts; design: species or system mice
# Method: FIG. 3. In vivo ARID1A/ATR synthetic lethality. A. Schematic of VX-970 therapy experiment in mice bearing established HCT116 ARID1A^+/+ and ARID1A^−/− xenografts. Cells were inoculated subcutaneously into nude mice and tumors allowed to establish for 10 days. Mice were then randomized to treatment regimens of either VX-970 (60 mg/kg, 4× weekly by oral gavage) or vehicle. Mice were then treated for a subsequent 40 days. Tumor volume was monitored twice weekly. B. Relative tumor volume plot from (A) showing efficacy of VX-970 and selectivity for ARID1A^−/− xenografts* p=0.024, ANOVA. C. Schematic of tumor incidence experiment in mice with non-established HCT116 ARID1A^+/+ and ARID1A^−/− xenografts. Mice were inoculated with cells as before, randomized and then treated with VX-970. VX-970 or vehicle treatment was initiated on the day of cell implantation. Tumor volume was monitored twice weekly and overall tumour incidence was assessed 40 days later. D. Bar chart of incidence 40 days after implantation of HCT116 ARID1A^+/+ and ARID1A^−/− cells. Each group contained 15 animals and fractions above bars indicate the number of animals in which a measurable xenograft formed. *p=0.027 Fisher's exact test. E and F. Tumor growth in experiment described in (C). *p=0.015 ANOVA. G. VX-970 dose response curves from TOV21G (ARID1A mutant) and RMG1 (ARID1A wildtype) cells. Cells were exposed to VX-970 for 5 days. […] PARP-1, cleaved PARP-1 (85 kDa fragment) and tubulin were detected by western blot. […] Caspase3/7 activity was assessed using Caspase-Glo and total cellular viability was estimated using CellTitre-Glo. Luminescence ratios for Caspase-Glo (i.e. apoptotic cells) and CellTitre-Glo (ie viable cells) was determined for each dose and normalized to DMSO treated samples. *Student's t-test, p<0.05. […]
# In vivo efficacy studies were performed using HCT116 […], HCT116 ARID1A^−/− and TOV21G cells injected subcutaneously in the flank of female CD-1 Nude mice. […] Tumours were measured manually by calliper trice weekly and animals were sacrificed when tumours reached >15 mm in any direction.
# [2] = tested on: HCT116 ARID1A isogenic cells and TOV21G cells; experiment: Anaphase bridge analysis; assay type: cell-based, human; conditions: 0.5 uM, 8 hours
# Method: FIG. 5. ATRi effect on cell cycle progression, chromosomal instability, DNA damage and apoptosis. A. Barchart illustrating G2/M fraction in HCT116 ARID1A^+/+ and ARID1A^−/− cells synchronized in G1/early S phase by double thymidine block and released into fresh media containing DMSO or VX-970 (500 nM). The percentage of cells in G2/M was measured by FACS following PI staining. […] Cells were stained with DAPI. A minimum of 50 anaphases were scored in 3 biological replicate experiments. *p=0.023, Student's t-test. C. Bar chart illustrating frequency of anaphase bridges in TOV21G cells exposed to VX-970 (0.5 uM) or DMSO for 8 hours prior to fixation. Experiment performed as for (B). p=0.006 Student's t-test. D. Mitotic spread images from HCT116 ARID1A^+/+ and ARID1A^−/− cells following exposure to either DMSO or VX-970 (1 uM). Scale bar represents 20 um. E. Bar chart illustrating extent of chromosomal abnormalities in HCT116 ARID1A^+/+ and ARID1A^−/− cells exposed to VX-970 (1 uM). *p<0.05, Student's t-test. F. Western blot illustrating γH2AX in HCT116 ARID1A^+/+ and ARID1A^−/− cells exposed to VX-970 (0.5 uM) for the indicated time prior to cell lyses. G. Bar chart illustrating apoptotic fraction in cells exposed to increasing concentrations of VX-970 for 24 hours. Experiment as per FIG. 3I. H. Western blot illustrating PARP cleavage in HCT116 ARID1A^+/+ and ARID1A^−/− cells exposed to VX-970. […]
structure (smiles),measurement,setting,value
"CNCc1ccc(-c2cc(-c3nc(-c4ccc(S(=O)(=O)C(C)C)cc4)cnc3N)on2)cc1 [VX-970, 5-[4-(Isopropylsulfonyl)phenyl]-3-(3-{4-[(methylamino)methyl]phenyl}-1,2-oxazol-5-yl)-2-pyrazinamine]",growth of established ARID1A−/− xenografts,"[1]; 60 mg/kg, 4x weekly oral gavage, 40 days",significantly inhibited the growth
same,growth of ARID1A−/− tumours under continued treatment,"[1]; non-established xenograft experiment, p=0.015 ANOVA",dramatically slowed the growth
same,frequency of ARID1A−/− tumour formation,"[1]; treatment from day of cell implantation, incidence 40 days later, 15 animals per group",27%
same,frequency of anaphase bridges,[2],increased level of anaphase bridges
